Measured values as given in ChEMBL document CHEMBL1201862, “PubChem BioAssay data set” (2004).
Calls of active or inactive are those of the source.

Experiments:
[1] = biological target: T1, Polyadenylate-binding protein 1 (Homo sapiens, UniProt P11940); experiment: MLLE domain peptide-binding blockers, IC50 – biochemical, fluorescence polarization, FITC-PAM2 peptide, dose response (AID 602259); type: functional; conditions: read-out: IC50_Mean
[2] = biological target: T1, Polyadenylate-binding protein 1; experiment: MLLE binding blockers, Cy5 peptide tracer – biochemical, fluorescence polarization, Cy5-PAM2 peptide, secondary, miRNA deadenylation inhibitor project, dose response (AID 602260); type: functional; conditions: read-out: IC50_Mean
[3] = biological target: Voltage-dependent T-type calcium channel subunit alpha-1H (Homo sapiens, UniProt O95180); type: functional;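 note: channel activity triggered by adding a high calcium stimulation buffer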
[4] = non-specific 3'UTR reporter inhibition in Clone20-Shn3RL – cell-based, Renilla luciferase, cherry-picked, counter-screen for Shn3 inhibitor project, dose response (AID 624133); type: functional
[5] = reduction of Shn3 3'UTR-driven luciferase in osteoblasts – cell-based, Clone20 osteoblasts, firefly luciferase, cherry-picked, dose response (AID 624132); type: functional;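 note: firefly luciferase luminescence from reporter carrying the Shn3 3'UTR in osteoblasts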
[6] = loss of viability in HepG2 cells – cell-based, CellTiter-Glo, cherry-picked, cytotoxicity control for Shn3 inhibitor project, dose response (AID 624134); type: functional
[7] = biological target: Cytochrome P450 3A4 (Homo sapiens, UniProt P08684);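 note: CYP3A4 tested as one member of a cytochrome P450 panel screen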
[8] = biological target: T2, Microphthalmia-associated transcription factor (Homo sapiens, UniProt O75030); experiment: reducers of TRPM1 reporter luminescence, concentration series – cell-based, SK-MEL-5, cherry-picked, set 3, MITF inhibitor project, dose response (AID 493073); type: functional;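 note: SK-MEL-5 melanoma cells with luciferase driven by the MITF target TRPM1 promoter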
T2 sequence (O75030 whole entry): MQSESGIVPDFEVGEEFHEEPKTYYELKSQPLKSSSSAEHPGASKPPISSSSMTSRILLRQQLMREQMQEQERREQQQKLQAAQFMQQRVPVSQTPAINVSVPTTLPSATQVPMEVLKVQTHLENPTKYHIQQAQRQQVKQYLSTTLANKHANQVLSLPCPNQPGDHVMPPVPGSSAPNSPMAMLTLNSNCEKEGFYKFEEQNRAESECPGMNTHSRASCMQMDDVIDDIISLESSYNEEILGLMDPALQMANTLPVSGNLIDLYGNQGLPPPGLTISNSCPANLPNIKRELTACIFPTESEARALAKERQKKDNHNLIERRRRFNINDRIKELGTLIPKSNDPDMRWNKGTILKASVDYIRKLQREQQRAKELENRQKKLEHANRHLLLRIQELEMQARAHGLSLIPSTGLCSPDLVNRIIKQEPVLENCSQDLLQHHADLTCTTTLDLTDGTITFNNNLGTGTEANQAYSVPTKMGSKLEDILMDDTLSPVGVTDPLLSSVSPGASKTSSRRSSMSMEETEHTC

[9] = HIV-1 AD8 envelope cell-cell fusion blockers – cherry-pick, dose response (AID 652062); type: functional, cell-based;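 note: luciferase signal from cell-cell fusion driven by HIV-1 clade B AD8 Env; potency is for inhibitors of fusion seen as a drop in luminescence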
[10] = blockers of HIV-1 ZM109 envelope-driven cell-cell fusion – HeLa effector, CEM target cells, luciferase, cherry-pick, dose response (AID 652058); type: functional, cell-based;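 note: luciferase signal from HIV-1 Env mediated cell-cell fusion of effector and target cells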
[11] = blockers of HIV-1 envelope-mediated cell-cell fusion – cherry-pick, dose response (AID 652057); type: functional, cell-based

T1 sequence (P11940 whole entry, the tested form may be a part): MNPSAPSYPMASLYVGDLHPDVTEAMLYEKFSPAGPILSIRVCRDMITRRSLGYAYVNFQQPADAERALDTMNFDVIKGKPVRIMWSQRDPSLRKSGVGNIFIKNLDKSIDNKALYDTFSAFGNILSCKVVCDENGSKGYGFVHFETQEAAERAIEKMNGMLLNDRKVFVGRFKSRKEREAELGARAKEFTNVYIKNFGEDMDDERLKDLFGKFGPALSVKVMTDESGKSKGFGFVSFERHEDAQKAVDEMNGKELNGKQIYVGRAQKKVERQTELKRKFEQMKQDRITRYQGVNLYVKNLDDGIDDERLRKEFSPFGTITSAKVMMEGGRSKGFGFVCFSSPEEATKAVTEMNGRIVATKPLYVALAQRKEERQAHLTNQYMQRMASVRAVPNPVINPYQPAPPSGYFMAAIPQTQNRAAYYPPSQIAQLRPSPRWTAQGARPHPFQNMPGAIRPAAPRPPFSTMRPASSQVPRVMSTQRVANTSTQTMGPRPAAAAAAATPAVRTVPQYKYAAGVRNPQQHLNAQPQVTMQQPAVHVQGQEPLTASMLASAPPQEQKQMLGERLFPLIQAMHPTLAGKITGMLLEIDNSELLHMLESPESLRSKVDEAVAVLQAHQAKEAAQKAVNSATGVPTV
Voltage-dependent T-type calcium channel subunit alpha-1H, sequence (O95180 whole entry): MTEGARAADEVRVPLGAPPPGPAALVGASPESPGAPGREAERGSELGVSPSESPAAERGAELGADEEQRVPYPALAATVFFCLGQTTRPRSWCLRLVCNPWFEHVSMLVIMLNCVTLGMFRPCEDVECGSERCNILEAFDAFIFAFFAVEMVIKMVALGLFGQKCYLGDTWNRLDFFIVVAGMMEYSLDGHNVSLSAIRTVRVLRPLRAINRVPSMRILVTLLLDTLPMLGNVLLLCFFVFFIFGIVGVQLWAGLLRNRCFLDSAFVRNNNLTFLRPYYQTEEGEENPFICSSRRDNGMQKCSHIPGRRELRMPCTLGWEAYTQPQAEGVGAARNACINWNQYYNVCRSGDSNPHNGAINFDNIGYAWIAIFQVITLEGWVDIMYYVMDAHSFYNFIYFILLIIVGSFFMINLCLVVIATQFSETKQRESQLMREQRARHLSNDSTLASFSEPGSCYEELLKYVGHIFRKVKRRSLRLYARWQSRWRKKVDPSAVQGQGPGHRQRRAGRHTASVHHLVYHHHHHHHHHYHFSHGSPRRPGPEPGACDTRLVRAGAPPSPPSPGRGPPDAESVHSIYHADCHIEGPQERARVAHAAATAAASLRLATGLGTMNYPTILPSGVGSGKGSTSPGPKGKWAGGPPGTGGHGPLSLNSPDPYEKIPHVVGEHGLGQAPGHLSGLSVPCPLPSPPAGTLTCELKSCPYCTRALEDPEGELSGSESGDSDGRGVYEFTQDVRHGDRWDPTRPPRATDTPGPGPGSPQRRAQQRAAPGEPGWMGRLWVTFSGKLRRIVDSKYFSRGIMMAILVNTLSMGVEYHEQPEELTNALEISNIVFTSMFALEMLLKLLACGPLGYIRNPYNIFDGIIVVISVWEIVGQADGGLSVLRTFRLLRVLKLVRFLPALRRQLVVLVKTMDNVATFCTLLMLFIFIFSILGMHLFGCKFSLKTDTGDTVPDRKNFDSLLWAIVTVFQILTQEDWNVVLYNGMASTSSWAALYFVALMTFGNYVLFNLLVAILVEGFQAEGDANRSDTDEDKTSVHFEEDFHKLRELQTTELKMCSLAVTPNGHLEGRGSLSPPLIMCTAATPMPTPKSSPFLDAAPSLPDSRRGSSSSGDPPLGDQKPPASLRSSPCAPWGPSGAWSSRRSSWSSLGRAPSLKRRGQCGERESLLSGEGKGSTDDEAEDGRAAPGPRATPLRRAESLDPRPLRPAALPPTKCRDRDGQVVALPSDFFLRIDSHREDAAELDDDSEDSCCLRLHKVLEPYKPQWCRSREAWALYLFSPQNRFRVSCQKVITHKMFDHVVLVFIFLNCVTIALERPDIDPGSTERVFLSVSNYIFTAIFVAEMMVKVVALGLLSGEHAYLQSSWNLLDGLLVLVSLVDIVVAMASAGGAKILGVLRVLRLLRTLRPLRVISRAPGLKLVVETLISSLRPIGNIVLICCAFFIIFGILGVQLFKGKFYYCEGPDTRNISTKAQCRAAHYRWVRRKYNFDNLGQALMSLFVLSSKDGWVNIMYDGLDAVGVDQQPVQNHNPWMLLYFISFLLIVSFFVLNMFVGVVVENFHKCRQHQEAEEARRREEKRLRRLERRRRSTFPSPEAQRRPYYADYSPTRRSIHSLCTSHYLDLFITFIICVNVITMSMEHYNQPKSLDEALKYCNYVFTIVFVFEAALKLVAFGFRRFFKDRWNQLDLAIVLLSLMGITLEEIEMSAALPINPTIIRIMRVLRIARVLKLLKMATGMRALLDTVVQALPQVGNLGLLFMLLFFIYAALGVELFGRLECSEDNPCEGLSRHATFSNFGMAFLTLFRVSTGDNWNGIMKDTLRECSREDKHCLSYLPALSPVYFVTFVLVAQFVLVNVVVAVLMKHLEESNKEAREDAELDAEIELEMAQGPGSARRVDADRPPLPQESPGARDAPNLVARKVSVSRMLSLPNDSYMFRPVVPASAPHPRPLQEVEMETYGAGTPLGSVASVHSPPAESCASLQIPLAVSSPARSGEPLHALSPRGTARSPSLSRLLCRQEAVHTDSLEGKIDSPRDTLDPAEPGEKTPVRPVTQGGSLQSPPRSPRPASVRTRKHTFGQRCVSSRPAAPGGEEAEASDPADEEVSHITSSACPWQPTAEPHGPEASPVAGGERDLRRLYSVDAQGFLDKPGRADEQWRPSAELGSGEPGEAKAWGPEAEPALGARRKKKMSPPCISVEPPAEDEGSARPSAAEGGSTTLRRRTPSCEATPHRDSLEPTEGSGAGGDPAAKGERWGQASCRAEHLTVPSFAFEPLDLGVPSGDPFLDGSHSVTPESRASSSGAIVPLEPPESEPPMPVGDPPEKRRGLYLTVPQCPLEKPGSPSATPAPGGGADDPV
Cytochrome P450 3A4, sequence (P08684 whole entry): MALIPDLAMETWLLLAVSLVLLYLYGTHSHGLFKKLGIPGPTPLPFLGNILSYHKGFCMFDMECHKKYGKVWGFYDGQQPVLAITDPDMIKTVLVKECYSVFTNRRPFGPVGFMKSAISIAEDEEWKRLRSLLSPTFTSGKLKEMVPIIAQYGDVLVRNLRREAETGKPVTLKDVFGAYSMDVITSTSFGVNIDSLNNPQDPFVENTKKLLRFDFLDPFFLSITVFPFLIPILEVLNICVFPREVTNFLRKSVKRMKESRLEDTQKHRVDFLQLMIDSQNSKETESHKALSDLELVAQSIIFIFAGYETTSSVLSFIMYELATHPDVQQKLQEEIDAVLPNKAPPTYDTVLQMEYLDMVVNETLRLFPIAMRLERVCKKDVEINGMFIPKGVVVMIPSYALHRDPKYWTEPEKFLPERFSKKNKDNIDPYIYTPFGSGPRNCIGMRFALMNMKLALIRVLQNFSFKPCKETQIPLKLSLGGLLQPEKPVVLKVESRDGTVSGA

For `CCOC(=O)C1CCCN(C(=O)c2ccccc2SCCOC)C1` (stereo unspecified), the IC50 [1] was > 66 µM (inactive) and the IC50 [2] was > 66 µM (inactive).

For `N#CC(c1cccc(C(F)(F)F)c1)(c1ncc(C(F)(F)F)cc1Cl)N1CCOCC1` (stereo unspecified), the EC50 [3] was 2.49 µM (active).

With `CCN(CC)S(=O)(=O)c1ccc(N(C)Cc2ccc(C(F)(F)F)cc2)nc1` the AC50 [4] was 25.9 µM (active), the AC50 [5] was 5.85 µM (active) and the AC50 [6] was 41.1 µM (active). The EC50 [3] was 10.4 µM (active).

For `c1ccc2c(c1)nnn2Cc1nnc2sc(-c3ccc4c(c3)OCCO4)nn12`, the IC50 [1] was > 66 µM (inactive) and the IC50 [2] was > 66 µM (inactive).

For `Cc1nc(N)nc(S)c1CCCNc1ccccc1`, the AC50 [7] was 6.31 µM (inconclusive), the IC50 [1] was > 66 µM (inactive) and the IC50 [2] was > 66 µM (inactive).

For `NC(=O)c1cc([N+](=O)[O-])ccc1NCc1ccc(N)cc1`, the AC50 [8] was 1.41 µM (active).

With `N=c1c(C(=O)NCc2ccco2)cc2c(=O)n3ccccc3nc2n1CC1CCCO1` (stereo unspecified) the IC50 [1] was 39.5 µM (inactive) and the IC50 [2] was > 66 µM (inactive).

In the case of `O=C(NC(Sc1ccc(Cl)cc1)C(=O)O)c1ccccc1` (stereo unspecified), the IC50 [1] was > 66 µM (inactive) and the IC50 [2] was > 66 µM (inactive).

With `C[C@H](CO)N1C[C@H](C)[C@H](CN(C)S(=O)(=O)c2ccc(F)cc2)Oc2cc(Br)ccc2S1(=O)=O` the AC50 [9] was 4.74 µM (active), the AC50 [10] was 1.13 µM (active) and the AC50 [11] was 1.5 µM (active).

In the case of `C[C@@H]1CN([C@@H](C)CO)C(=O)c2cccc(NC(=O)C3CCCCC3)c2O[C@H]1CN(C)Cc1ccccc1`, the AC50 [9] was 22.1 µM (active), the AC50 [10] was 10.8 µM (active) and the AC50 [11] was 39.6 µM (active).

With `CCCC#Cc1ccc2c(c1)O[C@H](CN(C)S(=O)(=O)c1cccc(F)c1)[C@H](C)CN([C@@H](C)CO)S2(=O)=O` the AC50 [9] was 25.9 µM (active), the AC50 [10] was 15.2 µM (active) and the AC50 [11] was 25 µM (active).
